Assay results from PubChem BioAssay AID248 (DTP/NCI, 2004).
Inconclusive results and toxic doses are left out. Rule as the data show it: active = T/C of 150% or more; inactive = T/C below 125%.

Tested on: L1210 leukemia ip in BDF1 mice, survival T/C
Experiment: NCI In Vivo Anticancer Drug Screen. Data for tumor model L1210 Leukemia (intraperitoneal) in B6D2F1 (BDF1) mice
Conditions: endpoint: mean survival time, higher = longer survival
Procedure, shortened: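 Mice bearing the transplanted tumor received compound or vehicle. Survival of the treated group was divided by that of the vehicle-treated control group to give the ratio.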

[1] = dose: 100.0 mg/kg/injection, schedule: Q01DX009 (ip), vehicle: saline
[2] = dose: 100.0 mg/kg/injection, schedule: Q01DX001 (ip), vehicle: saline
[3] = dose: 200.0 mg/kg/injection, schedule: Q01DX001 (ip), vehicle: saline
[4] = dose: 100.0 mg/kg/injection, schedule: Q01DX009 (ip), vehicle: Klucel (hydroxypropylcellulose) (HPC)

Measured: T/C

Cc1ccc(NC(=O)N(CCCl)N=O)cc1Cl
inactive: dose: 0.5 mg/kg/injection, schedule: Q01DX009 (ip), vehicle: carboxymethylcellulose (CMC) 112 % of control | dose: 1.0 mg/kg/injection, schedule: Q01DX009 (ip), vehicle: carboxymethylcellulose (CMC) 117 % of control | dose: 13.0 mg/kg/injection, schedule: Q01DX001 (ip), vehicle: carboxymethylcellulose (CMC) 120 % of control | dose: 150.0 mg/kg/injection, schedule: Q01DX001 (ip), vehicle: carboxymethylcellulose (CMC) 100 % of control
active: dose: 13.0 mg/kg/injection, schedule: Q01DX007 (ip), vehicle: carboxymethylcellulose (CMC) 159 % of control | dose: 14.0 mg/kg/injection, schedule: Q01DX009 (ip), vehicle: carboxymethylcellulose (CMC) 164 % of control | dose: 29.0 mg/kg/injection, schedule: Q01DX001 (ip), vehicle: other 229 % of control | dose: 33.0 mg/kg/injection, schedule: Q01DX009 (ip), vehicle: carboxymethylcellulose (CMC) 166 % of control | dose: 44.0 mg/kg/injection, schedule: Q01DX001 (ip), vehicle: other 159 % of control | dose: 44.4 mg/kg/injection, schedule: Q01DX001 (ip), vehicle: carboxymethylcellulose (CMC) 159 % of control | dose: 66.6 mg/kg/injection, schedule: Q01DX001 (ip), vehicle: carboxymethylcellulose (CMC) 244 % of control | dose: 100.0 mg/kg/injection, schedule: Q01DX001 (ip), vehicle: carboxymethylcellulose (CMC) 193 % of control

CCOC(=O)N1CCOCC1
inactive: [1] 100 % of control | dose: 200.0 mg/kg/injection, schedule: Q01DX009 (ip), vehicle: saline 97 % of control | dose: 400.0 mg/kg/injection, schedule: Q01DX009 (ip), vehicle: saline 96 % of control

O=S1(=O)CCC/C1=C\c1ccccc1
inactive: dose: 100.0 mg/kg/injection, schedule: Q01DX001 (ip), vehicle: Klucel (hydroxypropylcellulose) (HPC) 121 % of control | dose: 200.0 mg/kg/injection, schedule: Q01DX001 (ip), vehicle: Klucel (hydroxypropylcellulose) (HPC) 103 % of control | dose: 400.0 mg/kg/injection, schedule: Q01DX001 (ip), vehicle: Klucel (hydroxypropylcellulose) (HPC) 101 % of control

Cc1ccccc1S(=O)(=O)c1cccs1
inactive: [2] 98 % of control | dose: 100.0 mg/kg/injection, schedule: Q04DX003 (ip), vehicle: acetone 98 % of control | [3] 95 % of control | dose: 200.0 mg/kg/injection, schedule: Q04DX003 (ip), vehicle: acetone 104 % of control | dose: 400.0 mg/kg/injection, schedule: Q01DX001 (ip), vehicle: saline 93 % of control | dose: 400.0 mg/kg/injection, schedule: Q04DX003 (ip), vehicle: acetone 93 % of control

CC1(C)OCC(=NNC(N)=O)CO1
inactive: dose: 50.0 mg/kg/injection, schedule: Q01DX009 (ip), vehicle: saline 96 % of control | [1] 93 % of control | dose: 100.0 mg/kg/injection, schedule: Q04DX003 (ip), vehicle: saline 90 % of control | dose: 200.0 mg/kg/injection, schedule: Q04DX003 (ip), vehicle: saline 90 % of control

CSc1cccc(Cl)c1
inactive: dose: 75.0 mg/kg/injection, schedule: Q01DX001 (ip), vehicle: saline 100 % of control | dose: 150.0 mg/kg/injection, schedule: Q01DX001 (ip), vehicle: saline 101 % of control

NCCN1Cc2ccccc2CCc2ccccc2C1
inactive: dose: 25.0 mg/kg/injection, schedule: Q01DX009 (ip), vehicle: Klucel (hydroxypropylcellulose) (HPC) 111 % of control | dose: 50.0 mg/kg/injection, schedule: Q01DX009 (ip), vehicle: Klucel (hydroxypropylcellulose) (HPC) 105 % of control | [4] 93 % of control

O=C(/C=C(\C(=O)c1ccccc1)c1ccccc1)c1ccccc1
inactive: dose: 50.0 mg/kg/injection, schedule: Q04DX003 (ip), vehicle: Klucel (hydroxypropylcellulose) (HPC) 95 % of control | [2] 92 % of control | [4] 95 % of control | dose: 100.0 mg/kg/injection, schedule: Q04DX003 (ip), vehicle: Klucel (hydroxypropylcellulose) (HPC) 101 % of control | dose: 200.0 mg/kg/injection, schedule: Q01DX001 (ip), vehicle: saline with Tween-80 90 % of control | [3] 95 % of control | dose: 200.0 mg/kg/injection, schedule: Q01DX009 (ip), vehicle: Klucel (hydroxypropylcellulose) (HPC) 102 % of control | dose: 200.0 mg/kg/injection, schedule: Q04DX003 (ip), vehicle: Klucel (hydroxypropylcellulose) (HPC) 102 % of control | dose: 400.0 mg/kg/injection, schedule: Q01DX009 (ip), vehicle: Klucel (hydroxypropylcellulose) (HPC) 98 % of control

O=C(Nc1ncc([N+](=O)[O-])s1)c1ccccc1Oc1ccccc1
inactive: dose: 100.0 mg/kg/injection, schedule: Q04DX002 (ip), vehicle: Klucel (hydroxypropylcellulose) (HPC) 102 % of control | dose: 200.0 mg/kg/injection, schedule: Q04DX002 (ip), vehicle: Klucel (hydroxypropylcellulose) (HPC) 115 % of control | dose: 400.0 mg/kg/injection, schedule: Q04DX002 (ip), vehicle: Klucel (hydroxypropylcellulose) (HPC) 100 % of control

CC(=O)c1ccc[n+](Cc2ccc([N+](=O)[O-])cc2)c1
inactive: dose: 100.0 mg/kg/injection, schedule: Q04DX003 (ip), vehicle: saline sonified 98 % of control
